In patent EP0684822B1, “CARBOCYCLIC DEOXYGUANOSINE ANALOGS FOR THE TREATMENT OF VIRAL INFECTIONS” (SOUTHERN RESEARCH INSTITUTE, priority 1993, dated 1994):
Values after ≈ are worked out from the molar mass of the structure shown.

Assays:
[1] = tested on: H.Ep.-2 cells infected with HSV-1; experiment: Metabolism in HSV-1-infected H.Ep.-2 cells, SAX HPLC; format: cell-based, human; settings: H.Ep.-2 cells infected with HSV-1, 8 hours, Fig. 4
Description: The in vivo metabolism of D- and L-2'CdG was also measured in HSV-[TK+]-infected, HSV-[TK-]-infected and mock infected H.Ep.-2 cells (human epidermal carcinoma cells, ATCC CCL23). Uninfected and infected cells were incubated in fresh medium containing 2 µCi/ml of either [^3H]-D- or L-2'CdG, as described above, to measure the metabolism of these enantiomers. After 8 hours the cells were harvested and washed free of medium with PBS, and extracts were prepared with cold 0.5 N perchloric acid for 0.5 hr. The extract was then neutralized with potassium bicarbonate and the resulting precipitate was removed by centrifugation. The supernatant was lyophilized to dryness and the acid-soluble metabolites were separated using SAX HPLC as described above.
(§1) While these findings are similar to those obtained with the isolated viral kinase, they differ from the resulted with the isolated enzyme in that relatively more di- and triphosphate were formed from L-2'CdG.

[2] = tested on: CCRF-CEM cells; experiment: Phosphorylation in uninfected CCRF-CEM cells, effects of dCyd and mycophenolic acid; format: cell-based; settings: for increase in the phosphates in the presence of mycophenolic acid / reduction of the amount of phosphates in the presence of dCyd: Fig. 6; for reduction of the amount of phosphates in the presence of dCyd: calculated from the radioactivity in the peaks
Description: as §1
Identity of the cellular enzyme(s) responsible for the phosphorylation of the enantiomers of 2'CdG. […] 36:291, 1989). To determine if dCyd kinase was involved, studies were carried out in which cells were indubated with D- or L-2'CdG and dCyd, and the formation of phosphates was monitored by HPLC. […] The presence of mycophenolic acid produced an increase in the phosphates of D- or L-2'CdG of 2.5-fold and 1.4-fold, respectively.

[3] = tested on: CMV; experiment: CMV yield reduction in MRC5 cell monolayer cultures (plaque assay); format: cell-based, human CMV; settings: for CMV Yield PFU/mL: virus controls 1.1 x 10^5; for CMV Yield log10 PFU/mL: virus controls 5.1
Description: (§2) The D- and L-enantiomers of 2'-CdG were prepared from racemic C-2,6-DAPR by an enzymatic method as described above Secrist et al. (J. Med. Chem. 30:746, 1987). The effectiveness of racemic-2'-CdG and of D-2'-CdG in reducing CMV yields in MRC5 cell monolayer cultures was determined by a plaque assay with the results set forth in tables 6 and 7.

[4] = tested on: MRC5 cell monolayer cultures; experiment: Drug cytotoxicity (gross morphology) in MRC5 cell monolayer cultures; format: cell-based
Description: as §2

[5] = tested on: human CMV; experiment: In vitro activity against human CMV in human foreskin fibroblast cells; format: cell-based
Description: The in vitro activity of D-2'-CdG was also compared with the current investigational drug of choice for human CMV, DHPG. These experiments were carried out in human foreskin fibroblast cells.

[6] = tested on: human CMV; experiment: Intravitreal human CMV infection in rabbits; format: in vivo, New Zealand white rabbits; settings: intravitreal injection, 100 µg in 100 µl, 48-hour intervals beginning at day 4
From the text: The symptoms included vitritis, iritis, retinal pathology (micro hemorrhages and focal necrosis of the retinal surface), corneal stromal haze and neovascularization, and corneal endothelial pigmented precipitates. […] The intravitreal route offers some significant advantages for intraocular infections including: 1) delivery of maximal concentrations of drug to the desired site of action; 2) increased potential for sustained release (i.e., longer half-life, T1/2) of the drug; and 3) reduced potential for systemic toxicity.

[7] = tested on: MRC5 cell monolayer cultures; experiment: Drug cytotoxicity (gross morphology) in MRC5 cell monolayer cultures; format: cell-based; remark: listed apart in the source

Nc1nc2c(ncn2[C@@H]2C[C@H](CO)[C@@H](O)C2)c(=O)[nH]1 [D-2'-CdG, [1R,3S,4R-(1α,3β,4α)]-D-2-Amino-1,9-dihydro-9-[3-hydroxy-4-(hydroxymethyl)cyclopentyl]-6H-purin-6-one]
principal soluble metabolite [1]: the triphosphate
increase in the phosphates in the presence of mycophenolic acid [2]: 2.5 fold
reduction of the amount of phosphates in the presence of dCyd [2]: 80-90%
predominant metabolite ([2]; uninfected CEM cells, Fig. 5): the triphosphate
CMV Yield PFU/mL ([3]; 0.1 µM): 3.8 x 10^4 PFU/mL
CMV Yield log10 PFU/mL ([3]; 0.1 µM): 4.6 log10 PFU/mL
CMV Yield PFU/mL ([3]; 0.32 µM): 1.4 x 10^4 PFU/mL
CMV Yield log10 PFU/mL ([3]; 0.32 µM): 4.1 log10 PFU/mL
CMV Yield PFU/mL ([3]; 1.0 µM): 5.4 x 10^3 PFU/mL
CMV Yield log10 PFU/mL ([3]; 1.0 µM): 3.7 log10 PFU/mL
CMV Yield PFU/mL ([3]; 3.2 µM): 8.4 x 10^2 PFU/mL
CMV Yield log10 PFU/mL ([3]; 3.2 µM): 2.9 log10 PFU/mL
CMV Yield PFU/mL ([3]; 10 µM): 2 x 10^1 PFU/mL
CMV Yield log10 PFU/mL ([3]; 10 µM): 1.3 log10 PFU/mL
CMV Yield PFU/mL ([3]; 32 µM): 0 PFU/mL
CMV Yield PFU/mL ([3]; 100 µM): 0 PFU/mL
inhibition at 0.1 µM ([3]; Human betaherpesvirus 5, MRC5, 0.1 µM, read-out: Reduction (%) of CPE by D-2'CdG at Time of Virus Harvest): 0%
inhibition at 0.32 µM ([3]; Human betaherpesvirus 5, MRC5, 0.32 µM, read-out: Reduction (%) of CPE by D-2'CdG at Time of Virus Harvest): 0%
inhibition at 1 µM ([3]; Human betaherpesvirus 5, MRC5, 1.0 µM, read-out: Reduction (%) of CPE by D-2'CdG at Time of Virus Harvest): 10%
inhibition at 3.2 µM ([3]; Human betaherpesvirus 5, MRC5, 3.2 µM, read-out: Reduction (%) of CPE by D-2'CdG at Time of Virus Harvest): 10%
inhibition at 10 µM ([3]; Human betaherpesvirus 5, MRC5, 10 µM, read-out: Reduction (%) of CPE by D-2'CdG at Time of Virus Harvest): 25%
inhibition at 32 µM ([3]; Human betaherpesvirus 5, MRC5, 32 µM, read-out: Reduction (%) of CPE by D-2'CdG at Time of Virus Harvest): 50%
inhibition at 100 µM ([3]; Human betaherpesvirus 5, MRC5, 100 µM, read-out: Reduction (%) of CPE by D-2'CdG at Time of Virus Harvest): 50%
Drug Cytotoxicity (Gross Morphology) ([4]; 0.32 µM): 0
Drug Cytotoxicity (Gross Morphology) ([4]; 3.2 µM): 0
Drug Cytotoxicity (Gross Morphology) ([4]; 32 µM): v. sl. toxicity
Drug Cytotoxicity (Gross Morphology) ([4]; 320 µM): toxic
antiviral potency relative to DHPG [5]: more than 3 times
EC50 ([5]; Human betaherpesvirus 5, read-out: ED50 value (median dose at which 50% antiviral efficacy is observed)): 0.06 µg/mL (≈ 0.226 µM)
clinical effect compared to placebo [6]: effective in reducing the development of retinal pathology and in reducing the severity of the vitritis and iritis
clinical outcome compared to ganciclovir (DHPG) under the same conditions [6]: clinically better than treatment with ganciclovir
Drug Cytotoxicity (Gross Morphology) ([7]; 0.1 µM): 0
Drug Cytotoxicity (Gross Morphology) ([7]; 1.0 µM): 0
Drug Cytotoxicity (Gross Morphology) ([7]; 10 µM): 0
Drug Cytotoxicity (Gross Morphology) ([7]; 100 µM): slight toxicity

Nc1nc2c(ncn2[C@H]2C[C@@H](CO)[C@H](O)C2)c(=O)[nH]1 [L-2'-CdG, [1S,3R,4S-(1α,3β,4α)]-L-2-Amino-1,9-dihydro-9-[3-hydroxy-4-(hydroxymethyl)cyclopentyl]-6H-purin-6-one]
principal soluble metabolite [1]: the monophosphate
increase in the phosphates in the presence of mycophenolic acid [2]: 1.4 fold
reduction of the amount of phosphates in the presence of dCyd [2]: 80-90%
predominant metabolite ([2]; uninfected CEM cells, Fig. 5): the monophosphate
total amount of phosphates formed, relative to D-2'CdG ([2]; uninfected CEM cells, Fig. 5): about twice that formed from D-2'CdG
